Measured values: PubChem BioAssay (NCI)
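Exposure lasted 48 hours, with cells grown in 96-well plates and compounds tested at five concentrations. The concentration for full growth arrest is given as TGI.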

Legend:
Test in all cases: DTP human tumour cell line panel, 48 h
786-0 renal = system: 786-0 renal
A498 renal = system: A498 renal
A549 NSCLC = system: A549 NSCLC
ACHN renal = system: ACHN renal
CAKI-1 renal = system: CAKI-1 renal
CCRF-CEM leukemia = system: CCRF-CEM leukemia
COLO 205 colon = system: COLO 205 colon
DLD-1 colon = system: DLD-1 colon
DMS 273 small cell lung = system: DMS 273 small cell lung
EKVX NSCLC = system: EKVX NSCLC
HCC-2998 colon = system: HCC-2998 colon
HL-60(TB) leukemia = system: HL-60(TB) leukemia
HOP-62 NSCLC = system: HOP-62 NSCLC
HOP-92 NSCLC = system: HOP-92 NSCLC
HT29 colon = system: HT29 colon
IGROV1 ovarian = system: IGROV1 ovarian
K-562 leukemia = system: K-562 leukemia
KM12 colon = system: KM12 colon
KM20L2 colon = system: KM20L2 colon
LOX IMVI melanoma = system: LOX IMVI melanoma
LXFL 529 NSCLC = system: LXFL 529 NSCLC
M14 melanoma = system: M14 melanoma
M19-MEL melanoma = system: M19-MEL melanoma
MALME-3M melanoma = system: MALME-3M melanoma
MOLT-4 leukemia = system: MOLT-4 leukemia
NCI-H23 lung = system: NCI-H23 lung
NCI-H460 lung = system: NCI-H460 lung
NCI-H522 lung = system: NCI-H522 lung
OVCAR-3 ovarian = system: OVCAR-3 ovarian
OVCAR-4 ovarian = system: OVCAR-4 ovarian
OVCAR-5 ovarian = system: OVCAR-5 ovarian
OVCAR-8 ovarian = system: OVCAR-8 ovarian
RPMI-8226 leukemia = system: RPMI-8226 leukemia
RXF 393 renal = system: RXF 393 renal
RXF-631 renal = system: RXF-631 renal
SF-268 CNS = system: SF-268 CNS
SF-295 CNS = system: SF-295 CNS
SF-539 CNS = system: SF-539 CNS
SK-MEL-2 melanoma = system: SK-MEL-2 melanoma
SK-MEL-28 melanoma = system: SK-MEL-28 melanoma
SK-MEL-5 melanoma = system: SK-MEL-5 melanoma
SK-OV-3 ovarian = system: SK-OV-3 ovarian
SN12C renal = system: SN12C renal
SNB-19 CNS = system: SNB-19 CNS
SNB-75 CNS = system: SNB-75 CNS
SNB-78 CNS = system: SNB-78 CNS
SW-620 colon = system: SW-620 colon
TK-10 renal = system: TK-10 renal
U251 CNS = system: U251 CNS
UACC-257 melanoma = system: UACC-257 melanoma
UACC-62 melanoma = system: UACC-62 melanoma
UO-31 renal = system: UO-31 renal
DMS 114 small cell lung = system: DMS 114 small cell lung
NCI-H226 lung = system: NCI-H226 lung
XF 498 CNS = system: XF 498 CNS

## CCCCCCCc1cc(OC(=O)c2c(C)cc(OC)cc2O)cc(O)c1C(=O)O
786-0 renal
  TGI: 36.8 µM
A498 renal
  TGI: 38 µM
A549 NSCLC
  TGI: 83.9 µM
ACHN renal
  TGI: 62.8 µM
CAKI-1 renal
  TGI: 43.4 µM
CCRF-CEM leukemia
  TGI: 78.6 µM
COLO 205 colon
  TGI: 37.3 µM
DLD-1 colon
  TGI: 34.7 µM
DMS 273 small cell lung
  TGI: 87.9 µM
EKVX NSCLC
  TGI: 77 µM
HCC-2998 colon
  TGI: 35.6 µM
HL-60(TB) leukemia
  TGI: 68.3 µM
HOP-62 NSCLC
  TGI: 35.2 µM
HOP-92 NSCLC
  TGI: 41.8 µM
HT29 colon
  TGI: > 100 µM
IGROV1 ovarian
  TGI: 55.3 µM
K-562 leukemia
  TGI: > 100 µM
KM12 colon
  TGI: 46.2 µM
KM20L2 colon
  TGI: 40.3 µM
LOX IMVI melanoma
  TGI: 48.7 µM
LXFL 529 NSCLC
  TGI: 34 µM
M14 melanoma
  TGI: 36.6 µM
M19-MEL melanoma
  TGI: 50.7 µM
MALME-3M melanoma
  TGI: 37.6 µM
MOLT-4 leukemia
  TGI: 88.3 µM
NCI-H23 lung
  TGI: 43.1 µM
NCI-H460 lung
  TGI: 36 µM
NCI-H522 lung
  TGI: 48.3 µM
OVCAR-3 ovarian
  TGI: 28.7 µM
OVCAR-4 ovarian
  TGI: 78.2 µM
OVCAR-5 ovarian
  TGI: 32.1 µM
OVCAR-8 ovarian
  TGI: 77.9 µM
RPMI-8226 leukemia
  TGI: 74 µM
RXF 393 renal
  TGI: 52.2 µM
RXF-631 renal
  TGI: 63.9 µM
SF-268 CNS
  TGI: 45.9 µM
SF-295 CNS
  TGI: 50 µM
SF-539 CNS
  TGI: 32.6 µM
SK-MEL-2 melanoma
  TGI: 36.9 µM
SK-MEL-28 melanoma
  TGI: 38.7 µM
SK-MEL-5 melanoma
  TGI: 40.7 µM
SK-OV-3 ovarian
  TGI: 69.2 µM
SN12C renal
  TGI: 82.9 µM
SNB-19 CNS
  TGI: 58.3 µM
SNB-75 CNS
  TGI: 36.1 µM
SNB-78 CNS
  TGI: > 100 µM
SW-620 colon
  TGI: 64.5 µM
TK-10 renal
  TGI: 90.2 µM
U251 CNS
  TGI: 32.1 µM
UACC-257 melanoma
  TGI: 87.7 µM
UACC-62 melanoma
  TGI: 43.7 µM
UO-31 renal
  TGI: 30.6 µM

## CCOc1ccc(NC(=O)C2=C(C)NC(C)=C(C(=O)Nc3ccc(OCC)cc3)C2c2ccc(O)c(OC)c2)cc1
786-0 renal
  TGI: > 100 µM
A498 renal
  TGI: 66.7 µM
A549 NSCLC
  TGI: > 100 µM
ACHN renal
  TGI: > 100 µM
CAKI-1 renal
  TGI: > 100 µM
CCRF-CEM leukemia
  TGI: > 100 µM
COLO 205 colon
  TGI: > 100 µM
DLD-1 colon
  TGI: > 100 µM
DMS 114 small cell lung
  TGI: > 100 µM
EKVX NSCLC
  TGI: > 100 µM
HCC-2998 colon
  TGI: 76.1 µM
HL-60(TB) leukemia
  TGI: > 100 µM
HOP-62 NSCLC
  TGI: 92.9 µM
HOP-92 NSCLC
  TGI: 53.9 µM
HT29 colon
  TGI: > 100 µM
IGROV1 ovarian
  TGI: > 100 µM
K-562 leukemia
  TGI: > 100 µM
KM12 colon
  TGI: > 100 µM
KM20L2 colon
  TGI: > 100 µM
LOX IMVI melanoma
  TGI: > 100 µM
LXFL 529 NSCLC
  TGI: > 100 µM
M14 melanoma
  TGI: > 100 µM
M19-MEL melanoma
  TGI: > 100 µM
MALME-3M melanoma
  TGI: > 100 µM
MOLT-4 leukemia
  TGI: > 100 µM
NCI-H226 lung
  TGI: > 100 µM
NCI-H23 lung
  TGI: > 100 µM
NCI-H460 lung
  TGI: > 100 µM
NCI-H522 lung
  TGI: > 100 µM
OVCAR-3 ovarian
  TGI: > 100 µM
OVCAR-4 ovarian
  TGI: > 100 µM
OVCAR-5 ovarian
  TGI: > 100 µM
OVCAR-8 ovarian
  TGI: > 100 µM
RPMI-8226 leukemia
  TGI: > 100 µM
RXF 393 renal
  TGI: > 100 µM
RXF-631 renal
  TGI: > 100 µM
SF-268 CNS
  TGI: > 100 µM
SF-295 CNS
  TGI: > 100 µM
SF-539 CNS
  TGI: 83.6 µM
SK-MEL-2 melanoma
  TGI: > 100 µM
SK-MEL-28 melanoma
  TGI: > 100 µM
SK-MEL-5 melanoma
  TGI: > 100 µM
SK-OV-3 ovarian
  TGI: > 100 µM
SN12C renal
  TGI: > 100 µM
SNB-19 CNS
  TGI: > 100 µM
SNB-75 CNS
  TGI: 59.2 µM
SNB-78 CNS
  TGI: > 100 µM
SW-620 colon
  TGI: > 100 µM
TK-10 renal
  TGI: > 100 µM
U251 CNS
  TGI: > 100 µM
UACC-257 melanoma
  TGI: > 100 µM
UO-31 renal
  TGI: > 100 µM
XF 498 CNS
  TGI: 52 µM
